Data from patent US20140213576A1, “NOVEL COMPOUND USEFUL FOR THE TREATMENT OF DEGENERATIVE AND INFLAMMATORY DISEASES” (GALAPAGOS NV, priority 2013, published 2014).

Legend:
[1] = tested on: CTLL2 (ATCC TIB-214); test: CTLL2 viability assay; format: cell-based; conditions: IL2-dependent viability, ATP-lite, individual determinations
Experimental: The protocol describes the methods to analyse the activity of compounds on the ability to sustain the IL2-dependent viability of CTLL2 (ATCC TIB-214).
Negative control is a DMSO dilution, positive control at 10 μM. Final DMSO concentration is 0.1%.

[2] = tested on: IL-6-induced STAT1 phosphorylation; test: Whole blood assay, IL-6 stimulation, phospho-STAT1 by FACS; format: cell-based; conditions: human whole blood, CD4+ cells, 9 different donors
Experimental: In addition, a flow cytometry analysis was performed to establish JAK1 over JAK2 compound selectivity ex vivo using human whole blood. Therefore, blood was taken from human volunteers who gave informed consent. Blood was then equilibrated for 30 min at 37° C. under gentle rocking, then aliquoted in Eppendorf tubes. Compound was added at different concentrations and incubated at 37° C. for 30 min under gentle rocking and subsequently stimulated for 20 min at 37° C. under gentle rocking with interleukin 6 (IL-6) for JAK1-dependent pathway stimulation or GM-CSF for JAK2-dependent pathway stimulation. Phospho-STAT1 and phospho-STAT5 were then evaluated using FACS analysis.
For IL-6-stimulated increase of Signal Transducers and Activators of Transcription 1 (pSTAT1) phosphorylation in white blood cell, human whole blood, drawn from human volunteers who gave informed consent, was ex vivo treated with the compound for 30 min and subsequently stimulated for 20 min with IL-6. The increase in phosphorylation of STAT1 by IL-6 in lymphocytes was measured using anti phospho-STAT1 antibody by FACS. […]
Cells are then washed once with 1×PBS and analyzed on a FACSCanto II flow cytometer (BD Biosciences).
50,000 total events were counted and Phospho-STAT1 positive cells were measured after gating on CD4+ cells, in the lymphocyte gate. […]

[3] = tested on: BA/F3 (ATCC CRL-12015); test: BA/F3 viability assay; format: cell-based, murine; conditions: IL3-dependent viability, ATP-lite, individual determinations
Source text: The protocol describes the methods to analyse the activity of compounds on the ability to sustain the IL3-dependent viability of BA/F3 (ATCC CRL-12015; Collins et al, 1992).

[4] = biological target: T1, JAK1 (Homo sapiens, UniProt P23458); test: JAK1 Ki determination assay; format: biochemical; conditions: Lineweaver-Burk, varying ATP, Ulight-JAK-1 peptide; read-out: Ki against JAK1
T1 construct: Recombinant human JAK1 (catalytic domain, amino acids 866-1154; catalog number PV4774); purchased Invitrogen PV4774
T1 sequence (P23458 866-1154): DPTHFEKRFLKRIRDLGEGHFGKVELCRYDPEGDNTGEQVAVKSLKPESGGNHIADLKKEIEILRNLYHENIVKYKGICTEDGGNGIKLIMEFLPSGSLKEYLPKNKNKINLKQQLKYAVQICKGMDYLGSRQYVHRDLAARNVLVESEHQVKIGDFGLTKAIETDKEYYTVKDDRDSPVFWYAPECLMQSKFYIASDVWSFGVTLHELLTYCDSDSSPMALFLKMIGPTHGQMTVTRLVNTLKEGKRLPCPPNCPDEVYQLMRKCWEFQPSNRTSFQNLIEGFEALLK
Experimental: For the determination of Ki, different amounts of compound were mixed with the enzyme and the enzymatic reaction was followed as a function of ATP concentration. The Ki was determined by means of double reciprocal plotting of Km vs compound concentration (Lineweaver-Burk plot). 1 ng of JAK1 (Invitrogen, PV4774) is used in the assay. The substrate was 50 nM Ulight-JAK-1 (Tyr1023) Peptide (Perkin Elmer, TRF0121) The reaction is performed in 25 mM MOPS pH 6.8, 0.01%, 2 mM DTT, 5 mM MgCl2 Brij-35 with varying concentrations of ATP and compound. Phosphorylated substrate was measured using an Eu-labeled anti-phosphotyrosine antibody PT66 (Perkin Elmer, AD0068) as described in 1.1.2. Readout was performed on the envision (Perkin Elmer) with excitation at 320 nm and emission followed at 615 nm and 665 nm.

CCc1cc(C2CN(S(C)(=O)=O)C2)ncc1N(C)c1cc2c(cn1)ncn2C [Compound 1, [4-Ethyl-6-(1-methanesulfonyl-azetidin-3-yl)-pyridin-3-yl]-methyl-(1-methyl-1H-imidazo[4,5-d]pyridin-6-yl)-amine]
IC50 ([1]; 24 h, listed as compound of the invention): 3.79 µM
IC50 ([1]; Mus musculus, CTLL-2, 24 h): 7.39 µM
IC50 [2]: 0.498 µM
IC50 ([3]; 48 h, listed as compound of the invention): 8.02 µM
IC50 ([3]; Mus musculus, BaF3, 48 h): > 11.1 µM
Ki [4]: 0.00921 µM
